From paper PMC9852121, “Targeted α-therapy using astatine (^211At)-labeled PSMA1, 5, and 6: a preclinical evaluation as a novel compound” (European Journal of Nuclear Medicine and Molecular Imaging, 2022)
Where two headings read alike, the source gives them in different places.

Experiments:
[1] = set-up: method as in PMID 27789722, PMID 27889802; conditions: mice; cited from earlier work
[2] = set-up: method as in PMID 27789722, PMID 27889802; conditions: humans; cited from earlier work
[3] = test system: LNCaP cells (high expression of PSMA); test: In vitro cellular uptake analysis (LNCaP versus PC-3 cells); assay type: cell-based, human; conditions: 30 min incubation, Fig. 2; for Cellular uptake, LNCaP cells compared with PC-3 cells: LNCaP high, PC-3 low PSMA expression
Text: Human prostate cancer cell lines, prostatic carcinoma-3 (PC-3) (low expression of PSMA), and lymph node carcinoma of the prostate (LNCaP) (high expression of PSMA) were obtained from the RIKEN Cell Bank (Tsukuba, Japan). Cells were maintained in a culture medium, Roswell Park Memorial Institute 1640 medium (FUJIFILM Wako Pure Chemical Corporation, Osaka, Japan), supplemented with 10% heat-inactivated fetal bovine serum (Gibco) and 1% penicillin-streptomycin (FUJIFILM Wako Pure Chemical). The medium for LNCaP was supplemented with 1% sodium pyruvate (FUJIFILM Wako Pure Chemical) in a culture medium. Cells were seeded in 24-well plates (5 × 10^4/well) and cultured for 2 days. After washing twice with phosphate-buffered saline (PBS) (−), the culture medium was changed to Hanks’ balanced salt solution (+). After treatment with [^211At]PSMA1 or [^211At]PSMA5 (approximately 30–50 kBq/well), cells were washed twice with PBS (–). After washing, all cells were lysed with 0.1 N sodium hydroxide, and the radioactivity of the cells was calculated using a 2480 Wizard^2 γ counter (Perkin Elmer, MA, USA). Protein levels were measured using a plate reader (MultiScan FC, Thermo Fisher) and the BCA Protein Assay Kit (FUJIFILM Wako Pure Chemical). Uptake (%uptake/mg protein) was compared between PC-3 and LNCaP cells at 30 min after incubation with [^211At]PSMA1 or [^211At]PSMA5.

LNCaP xenograft [4] = test: Biodistribution in LNCaP xenograft model (NOD/SCID mice); assay type: in vivo; conditions: for Total excretion in the urine / Total excretion in the feces: Fig. 3 legend, mouse strain not given; for Tumor retention (uptake): about 0.11-0.12 MBq; for Kidney uptake, comparison [211At]PSMA5 versus [211At]PSMA6: 3 h post-injection, NOD/SCID mice
Text: (§1) Non-obese diabetic/severe combined immunodeficiency (NOD/SCID) mice (5 weeks old, male) were purchased from Charles River Japan, Inc. (Atsugi, Japan). LNCaP cells were suspended in a 1:1 mixture of medium and Matrigel (Corning, USA), subcutaneously implanted into the unilateral flank of the mice (approximately 6–10 × 10^6 cells), and used approximately 5 weeks later (range, 4–8 weeks). Institute of Cancer Research (ICR) mice (6 weeks old, male) were purchased from Japan SLC, Inc. (Shizuoka, Japan) and used as a non-tumor-bearing cohort for the evaluation of biodistribution and histology.
(§2) High PSMA expression was already confirmed in LNCaP xenografts in our previous study. The brain, thyroid, salivary gland, lung, heart, liver, spleen, pancreas, stomach, small intestine, colon, kidney, bone, testis, blood, urine, feces, and tumor were excised and weighed to evaluate biodistribution after euthanasia at 3 and 24 h after administration. Urine excretion was determined from absorption to filter paper or by urine collection in the cage, and feces were collected from the cage. Radioactivity was measured using a 2480 Wizard^2 γ counter. The detection efficiency for ^211At with the γ counter was calibrated by measurement of the ^211At source whose radioactivity was determined with a Ge semiconductor detector (BE2020, Mirion Technologies (Canberra), Connecticut, USA). Uptake was calculated as the percentage of injected dose (%ID).

[5] = Biodistribution in normal ICR mice; assay type: in vivo; conditions: 3 h post-injection
Text: as §1
as §2, with “The brain, thyroid, salivary gland, lung, heart, liver, spleen, pancreas, stomach, small intestine, colon, kidney, bone, testis, blood, urine, feces, and tumor were excised and weighed to evaluate biodistribution after euthanasia at 3 and 24 h after administration.” left out

LNCaP xenograft [6] = test: Planar imaging with γ camera in LNCaP xenograft mice; assay type: in vivo, NOD/SCID mice; conditions: 3 and 24 h post-injection
Method: Planar imaging was performed using a γ camera system (E-cam, Siemens) at 3 and 24 h after administration, targeting the X-rays emitted from the daughter nuclide ^211Po (energy window: 79 keV ± 20%). Image analysis was performed by setting the regions of interest in the tumor and kidneys using AMIDE software (version 1.0.4).

LNCaP xenograft [7] = test: Treatment effect in LNCaP xenograft mice (tumor size, body weight); assay type: in vivo, NOD/SCID mice; conditions: single administration 0.4 MBq, versus saline
Text: as §1
LNCaP xenograft mice (body weight = 21.8 ± 5.98 g) were administered [^211At]PSMA5 (0.39 ± 0.03 MBq, 0.002 μg, n = 12), [^211At]PSMA1 (0.40 ± 0.07 MBq, 0.002 μg, n = 5), or saline (n = 10). […] Non-radiolabeled PSMA5 (high mass, 0.02 μg; low mass, 0.002 μg) and PSMA1 (high mass, 0.02 μg; low mass, 0.002 μg) were also administered to LNCaP xenograft mice (each n = 3) and compared with saline-injected mice (n = 3) to assess the absence of antitumor effect by the PSMA compound itself. […] The body weight (g) was also monitored.

[8] = Histopathological evaluation of organs in normal ICR mice; assay type: in vivo; conditions: for Histopathology of kidney parenchyma, salivary gland, stomach, thyroid, spleen and small intestine: 8 weeks after 0.4 MBq
Method: (§3) The excised organs and tissues were fixed in a 10% neutral buffered formalin solution. After fixation, paraffin sections were prepared and stained with hematoxylin and eosin. Specimens were evaluated using an integrated microscope (BZ-X810; Keyence Corporation, Osaka, Japan). Histological evaluation was performed by a toxicopathology specialist with the support of KAC Co. Ltd. (Kyoto, Japan).

[9] = Histopathological evaluation of organs in LNCaP xenograft mice; assay type: in vivo; conditions: LNCaP xenograft NOD/SCID mice, 3 and 6 weeks after 0.4 MBq
Method: as §3

[10] = Urine analysis with urinalysis test strips (protein) in normal ICR mice; assay type: in vivo; conditions: for Urine test of protein: individual animals No. 1-3
[11] = Plasma BUN and creatinine (renal function) in ICR mice; assay type: in vivo; conditions: 8 weeks after administration, Supplementary Fig. S2
Method: Plasma was obtained by centrifuging a portion of the blood sample collected at the time of euthanasia and was measured using a dry clinical chemistry analyzer (SPOTCHEM D-00 QR D-02; ARKRAY, Inc., Kyoto, Japan). Blood urea nitrogen (BUN) and creatinine (Cre) levels were also measured. Cre values less than 0.2 were considered 0.2 in the statistical analysis.

[12] = In vivo deastatination / metabolites in blood and urine; set-up: species or system mice
[13] = set-up: method as in PMID 27230930; conditions: cited from earlier work

Row | SMILES | Total excretion in the urine (LNCaP xenograft [4]; 3 h) | Tumor retention (uptake) (LNCaP xenograft [4]; 3 h after administration) | Kidney uptake, comparison [211At]PSMA5 versus [211At]PSMA6 (LNCaP xenograft [4]) | Total excretion in the feces (LNCaP xenograft [4]; 24 h) | Total excretion in the urine (LNCaP xenograft [4]; 24 h) | Tumor retention (uptake) (LNCaP xenograft [4]; 24 h after administration) | Kidney uptake, comparison [211At]PSMA5 versus [211At]PSMA6 [5] | Histopathology of kidney parenchyma, salivary gland, stomach, thyroid, spleen and small intestine [8] | Urine test of protein ([10]; Day 21 after 0.4 MBq) | Urine test of protein ([10]; Day 38 after 0.4 MBq) | Cellular uptake, LNCaP cells compared with PC-3 cells [3] | Changes in body weight (LNCaP xenograft [7]) | Treatment effect on tumor growth (tumor size) (LNCaP xenograft [7]) | further results
1 | O=C(O)CC[C@H](NC(=O)N[C@@H](CCCCNC(=O)[C@H](Cc1ccc2ccccc2c1)NC(=O)c1ccc(CNC(=O)[C@H](CCC(=O)O)NC(=O)[C@H](CCC(=O)O)NC(=O)c2ccc([18F])nc2)cc1)C(=O)O)C(=O)O [[^18F]PSMA-1007] |  |  |  |  |  |  |  |  |  |  |  |  |  | Urine excretion in PET [1]: high urine excretion; Urine excretion in PET [2]: minimal
2 | O=C(O)CC[C@H](NC(=O)NC(CCCCNC(=O)c1ccc([211At])cc1)C(=O)O)C(=O)O (stereo partly drawn) [^211At-6, (2S)-2-(3-(1-carboxy-5-(4-211At-astatobenzamido)pentyl)ureido)-pentanedioic acid] |  |  |  |  |  |  |  |  |  |  |  |  |  | Kidney findings after treatment ([13]; 1.5 MBq): subcortical atrophy, and degenerative loss of proximal tubules; Proteinuria ([13]; animals treated with 1.5 MBq): developed proteinuria 1–2 months after treatment; Proteinuria ([13]; animals treated with 37 kBq): developed mild proteinuria that was later resolved

Now from value to molecule, other results behind:

Row | Total excretion in the urine (LNCaP xenograft [4]; 3 h) | Tumor retention (uptake) (LNCaP xenograft [4]; 3 h after administration) | Kidney uptake, comparison [211At]PSMA5 versus [211At]PSMA6 (LNCaP xenograft [4]) | Total excretion in the feces (LNCaP xenograft [4]; 24 h) | Total excretion in the urine (LNCaP xenograft [4]; 24 h) | Tumor retention (uptake) (LNCaP xenograft [4]; 24 h after administration) | Kidney uptake, comparison [211At]PSMA5 versus [211At]PSMA6 [5] | Histopathology of kidney parenchyma, salivary gland, stomach, thyroid, spleen and small intestine [8] | Urine test of protein ([10]; Day 21 after 0.4 MBq) | Urine test of protein ([10]; Day 38 after 0.4 MBq) | SMILES | Cellular uptake, LNCaP cells compared with PC-3 cells [3] | Changes in body weight (LNCaP xenograft [7]) | Treatment effect on tumor growth (tumor size) (LNCaP xenograft [7]) | further results
3 | 8.26 ± 5.00 %ID | 30.6 ± 17.8 %ID/g | similar | 35.2 ± 9.2 %ID | 15.33 ± 6.3 %ID | 40.7 ± 2.6 %ID/g | similar | no significant changes | 30 (1+) mg/dl | 30 (1+) mg/dl | O=C(O)CCC(NC(=O)NC(CCCCNC(=O)C(Cc1ccc2ccccc2c1)NC(=O)c1ccc(CNC(=O)C(CCC(=O)O)NC(=O)C(CCC(=O)O)NC(=O)Cc2ccc([211At])cc2)cc1)C(=O)O)C(=O)O (centres unmarked) [[^211At]PSMA5] | more highly incorporated into LNCaP cells | No significant changes in body weight | excellent tumor growth suppression | Cellular uptake, comparison between compounds [3]: higher uptake than [^211At]PSMA1; Tumor uptake, comparison with [211At]PSMA6 (LNCaP xenograft [4]; mouse, in vivo): higher tumor uptake than [^211At]PSMA6; Tumor-to-kidney uptake, comparison with [211At]PSMA6 (LNCaP xenograft [4]; mouse, in vivo): better tumor-to-kidney uptake; Uptake in the tumor xenografts and kidneys on planar images (LNCaP xenograft [6]): High uptake; Mice with regenerated tubules in the cortical area of the kidney ([8]; 2 weeks after high dose 1 MBq): one out of four; Histopathology of salivary glands and stomach [9]: No significant changes; Histopathology of the kidneys [9]: regenerated tubules were observed in the cortical area in all NOD/SCID mice; Proteinuria ([10]; 8 weeks after administration): did not observe proteinuria; Urine test of protein ([10]; Day 10 after 0.4 MBq): 30 (1+) mg/dl; Urine test of protein ([10]; Day 14 after 0.4 MBq): 30 (1+) mg/dl; BUN and Cre levels [11]: did not observe proteinuria or increased BUN and Cre levels; Metabolites, including astatide ions, present in urine (deastatination) ([12]; 3 h after injection, mice): not more than 1.0 % of the injected doses; Radioactivity in the blood and urine from intact molecules ([12]; 3 h post injection): most of the radioactivity observed in the blood and urine was from intact molecules
4 | 0.49 ± 0.37 %ID | 12.4 ± 4.8 %ID/g |  | 14.0 ± 4.8 %ID | 14.7 ± 10.0 %ID | 8.7 ± 3.5 %ID/g |  |  |  |  | O=C(O)CCC(NC(=O)NC(CCCCNC(=O)C(Cc1ccc2ccccc2c1)NC(=O)c1ccc(CNC(=O)CCC(=O)NCCCCC(NC(=O)CNC(=O)Cc2ccc([211At])cc2)C(=O)O)cc1)C(=O)O)C(=O)O (centres unmarked) [[^211At]PSMA1] | more highly incorporated into LNCaP cells | No significant changes in body weight | good treatment effect | Kidney excretion, comparison with [211At]PSMA5 and [211At]PSMA6 (LNCaP xenograft [4]; mouse, in vivo): superior
5 |  | 19.1 ± 4.5 %ID/g | similar | 9.78 ± 0.79 %ID | 6.20 ± 1.51 %ID | 18.1 ± 2.2 %ID/g | similar | no significant changes | 30 (1+) mg/dl | 30 (1+) mg/dl | O=C(O)CC[C@H](NC(=O)N[C@@H](CCCCNC(=O)[C@@H](Cc1ccc2ccccc2c1)NC(=O)c1ccc(CNC(=O)[C@H](CCC(=O)O)NC(=O)[C@H](CCC(=O)O)NC(=O)Cc2ccc([211At])cc2)cc1)C(=O)O)C(=O)O [[^211At]PSMA6] |  |  |  | Retention in the kidney, comparison with [211At]PSMA5 (LNCaP xenograft [4]; 24 h post-injection): higher retention in the kidney; Urine test of protein ([10]; Day 24 after 0.4 MBq): 100 (2+) mg/dl; Urine test of protein ([10]; Day 31 after 0.4 MBq): 30 (1+) mg/dl; Urine test of protein ([10]; Day 45 after 0.4 MBq): 30 (1+) mg/dl
